Measured values as given in US20250093263A1, “FRET-BASED ASSAYS” (The General Hospital Corporation, priority 2021, published 2025).
Where “and” joins values, the source holds several entries; their conditions need not be identical. Identical values can stand only once. Like-named read-outs stand apart in the source and are kept apart here. Marks after values point to notes of the source that are not given here.

Tests used:
[1] = biological target: T1, PfcProRS (Plasmodium falciparum, UniProt Q8I5R7); experiment: biochemical; format: binding
T1 construct: made in house; host or cells: SoluBL-21 E. coli
T1 sequence (Q8I5R7 249-746): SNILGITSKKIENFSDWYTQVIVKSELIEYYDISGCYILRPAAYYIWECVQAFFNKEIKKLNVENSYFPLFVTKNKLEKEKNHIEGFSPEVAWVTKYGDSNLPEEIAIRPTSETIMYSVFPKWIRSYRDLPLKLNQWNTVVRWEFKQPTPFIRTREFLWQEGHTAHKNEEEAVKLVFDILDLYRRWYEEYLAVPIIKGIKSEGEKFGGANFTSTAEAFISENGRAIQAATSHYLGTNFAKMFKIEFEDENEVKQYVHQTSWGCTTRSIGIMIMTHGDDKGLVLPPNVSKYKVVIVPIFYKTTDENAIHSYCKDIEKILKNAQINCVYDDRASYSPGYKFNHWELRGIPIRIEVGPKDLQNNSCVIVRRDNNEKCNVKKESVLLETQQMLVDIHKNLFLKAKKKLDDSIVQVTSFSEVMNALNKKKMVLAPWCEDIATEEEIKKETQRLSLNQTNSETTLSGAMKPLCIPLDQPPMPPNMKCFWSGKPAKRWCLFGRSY
Protocol: (§1) A stock solution containing CoraFluor-1-Halo-labeled HT-PfcProRS or CoraFluor-1-Halo-labeled HT-HsProRS at the concentration specified for each experiment was prepared in assay buffer (50 mM Tris, pH 7.5, 20 mM KCl, 10 mM MgCl2, 0.05% Tween-20, 1 mM dithiothreitol, and 0.5 mg/mL BSA). […] Plates were mixed on an Ika MTS 2/4 Digital Microtiter Shaker at 750 rpm for 2 min, centrifuged at 1,000×g at 25° C. for 1 min. and allowed to equilibrate at room temperature for 2 h before TR-FRET measurements were taken. […] PRISM 9 (GraphPad) was used to perform non-linear regression analysis (one site—specific binding), plot dose-response curves, and calculate KD values.
(§2) A Multidrop Combi Reagent Dispenser (ThermoFisher Scientific) was used to dispense 20 μL of 2× protein solution into each well. […] Plates were mixed on an Ika MTS 2/4 Digital Microtiter Shaker at 750 rpm for 2 min, centrifuged at 1,000×g at 25° C. for I min, and allowed to equilibrate for 2 h at room temperature before TR-FRET measurements were taken.
(§3) PRISM 9 (GraphPad) was used to perform non-linear regression analysis (log(inhibitor) vs. response—Variable slope (four parameters)), plot dose-response curves, and calculate iC50 values.
(§4) Test compounds were dispensed in duplicate, triplicate, or sextuplicate dose-response format using a D300 digital dispenser (Hewlett Packard). […] Plates were mixed on an Ika MTS 2/4 Digital Microtiter Shaker at 750 rpm for 2 min, centrifuged at 1,000×g at 25° C. for 1 min, and allowed to equilibrate for 2 h at room temperature.
(§5) GraphPad PRISM was used to perform non-linear regression (log(inhibitor) vs. response—Variable slope (four parameters)), plot dose-response curves, and calculate IC50 values.
(§6) This assay was generally conducted in the same manner as the CoraFluor-1-Halo format with minor differences. […] Each well was supplemented with 1 nM CoraFluor-1-Pfp-labeled anti-His6 antibody before the 2 h incubation.
(§7) TR-FRET measurements were acquired in kinetic mode (1 read every ˜45 s) for at least 10 min.

[2] = biological target: T2, Keap1 (His/GST) (Homo sapiens, UniProt Q14145); experiment: Keap1 TR-FRET Assay 3 (CDDO-FITC/Tb-Anti-6xHis); format: binding
T2 sequence (Q14145 whole entry): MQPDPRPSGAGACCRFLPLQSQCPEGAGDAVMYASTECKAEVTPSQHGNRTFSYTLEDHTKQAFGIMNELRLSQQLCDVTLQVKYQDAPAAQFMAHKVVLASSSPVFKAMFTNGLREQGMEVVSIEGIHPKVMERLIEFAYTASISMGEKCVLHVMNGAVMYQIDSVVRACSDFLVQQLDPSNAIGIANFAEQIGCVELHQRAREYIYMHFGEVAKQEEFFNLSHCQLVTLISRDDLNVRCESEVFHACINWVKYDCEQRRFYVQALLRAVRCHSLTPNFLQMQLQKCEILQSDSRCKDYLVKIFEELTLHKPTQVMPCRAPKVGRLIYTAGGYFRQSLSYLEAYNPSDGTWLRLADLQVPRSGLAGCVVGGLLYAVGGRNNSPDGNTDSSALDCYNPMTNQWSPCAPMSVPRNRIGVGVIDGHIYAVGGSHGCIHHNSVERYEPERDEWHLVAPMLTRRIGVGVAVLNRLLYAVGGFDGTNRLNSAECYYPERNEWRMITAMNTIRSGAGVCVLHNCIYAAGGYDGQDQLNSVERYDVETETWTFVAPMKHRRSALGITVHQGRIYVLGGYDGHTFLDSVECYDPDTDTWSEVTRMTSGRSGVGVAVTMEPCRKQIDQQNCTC

[3] = biological target: T2, Keap1 (His/GST); experiment: biochemical
[4] = tested on: P. falciparum Dd2-2D4; experiment: P. falciparum asexual blood stage growth assay, wild type; settings: for EC50: read-out: Dd2 (EC50 [nM]) wt; for percent growth at 10 μM: Dd2 wt, shown because compound had <50% growth inhibition
[5] = tested on: halofuginone-induced P. falciparum (elevated proline homeostasis); experiment: P. falciparum asexual blood stage growth assay, halofuginone-induced parasites; settings: for EC50: Plasmodium falciparum, DD2, 72 h, read-out: Dd2 (EC50 [nM]) Halofuginone-induced; for percent growth at 10 μM: halofuginone-induced, shown because compound had <50% growth inhibition
[6] = biological target: T3, HsProRS (Homo sapiens, UniProt P07814); experiment: TR-FRET ProRS ligand displacement / saturation binding assay, HsProRS; settings: for fold less tightly bound to HT-HsProRS relative to HT-PfcProRS: tracer KD ratio
T3 construct: made in house; host or cells: SoluBL-21 E. coli
T3 sequence (P07814 996-1512): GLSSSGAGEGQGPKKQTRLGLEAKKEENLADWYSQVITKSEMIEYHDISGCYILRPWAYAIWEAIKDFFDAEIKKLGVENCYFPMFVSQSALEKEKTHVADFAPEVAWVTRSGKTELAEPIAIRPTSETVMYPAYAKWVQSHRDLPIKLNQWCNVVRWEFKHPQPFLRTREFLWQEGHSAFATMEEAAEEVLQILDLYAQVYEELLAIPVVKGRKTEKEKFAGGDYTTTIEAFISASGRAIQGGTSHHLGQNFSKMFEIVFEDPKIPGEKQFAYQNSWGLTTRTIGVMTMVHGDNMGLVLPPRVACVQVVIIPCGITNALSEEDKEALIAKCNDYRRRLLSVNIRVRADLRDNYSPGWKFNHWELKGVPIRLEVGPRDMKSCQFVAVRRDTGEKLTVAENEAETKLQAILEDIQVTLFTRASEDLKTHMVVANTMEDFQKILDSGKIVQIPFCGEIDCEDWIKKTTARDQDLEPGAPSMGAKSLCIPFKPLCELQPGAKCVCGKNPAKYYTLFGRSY
Protocol: as §1, §2, §3, §4, §5, §6, §7

[7] = biological target: T4, BRD4 in MCF7 cells (Homo sapiens, UniProt O60885); experiment: TR-FRET BRD4 quantification after degrader treatment, MCF7 cells; format: cell-based; settings: for rescue of CS-JQ1-mediated BRD4 degradation: 250 nM CS-JQ1, 1 μM rescue compound or 10 μM JQ1; for rescue of dBET6-induced BRD4 degradation: 250 nM dBET6, 1 μM rescue compound or 10 μM JQ1, 5 h
T4 construct: TR-FRET-based quantification of BRD4 levels in unmodified cell lines after degrader treatment; endogenous in cells; host or cells: MCF7
Protocol: Cells were incubated for 5 h at 37° C. and 5% CO2 then media was replaced with pre-warmed cell culture medium (1 mL/well) and residual test compound was washed out for 1 h at 37° C. and 5% CO2. After, media was aspirated and cells were washed with PBS (2 mL/well), followed by the addition of ice-cold lysis buffer (200 μL/well). The plate was shaken at 200 rpm on an orbital shaker (IKA KS 260 basic) for 10 min, then lysate was transferred to 1.5 mL Eppendorf tubes and further incubated with slow, end-over-end mixing for 10 min at 4° C. […] TR-FRET ratios were background-subtracted from wells containing lysis buffer, 0.5 mg/mL BSA, and detection mix, then normalized to total protein concentration. The average TR-FRET intensity was normalized to DMSO for each biological replicate before being analyzed in Prism 9. […] Cell treatment, lysate preparation and TR-FRET analysis was performed as described above.

[8] = biological target: T5, BRD4 in MDA-MB-231 cells (Homo sapiens, UniProt O60885); experiment: TR-FRET BRD4 quantification after degrader treatment, MDA-MB-231 cells; format: cell-based; settings: for rescue of CS-JQ1-mediated BRD4 degradation: 250 nM CS-JQ1, 1 μM rescue compound or 10 μM JQ1; for rescue of dBET6-induced BRD4 degradation: 250 nM dBET6, 1 μM rescue compound or 10 μM JQ1, 5 h
T5 construct: TR-FRET-based quantification of BRD4 levels in unmodified cell lines after degrader treatment; endogenous in cells; host or cells: MDA-MB-231
Protocol: Cells were incubated for 5 h at 37° C. and 5% CO2 then media was replaced with pre-warmed cell culture medium (1 mL/well) and residual test compound was washed out for 1 h at 37° C. and 5% CO2. After, media was aspirated and cells were washed with PBS (2 mL/well), followed by the addition of ice-cold lysis buffer (200 μL/well). The plate was shaken at 200 rpm on an orbital shaker (IKA KS 260 basic) for 10 min, then lysate was transferred to 1.5 mL Eppendorf tubes and further incubated with slow, end-over-end mixing for 10 min at 4° C. […] TR-FRET ratios were background-subtracted from wells containing lysis buffer, 0.5 mg/mL BSA, and detection mix, then normalized to total protein concentration. The average TR-FRET intensity was normalized to DMSO for each biological replicate before being analyzed in Prism 9.
Cells were incubated for 5 h at 37° C. and 5% CO2 then media was replaced with pre-warmed cell culture medium (150 μL/well) and residual test compound was washed out for 1 h at 37° C. and 5% CO2. After, media was aspirated and cells were washed with PBS (200 μL/well), followed by the addition of ice-cold lysis buffer (60 L/well). […] Optionally, after TR-FRET measurements, 5 μL/well of CellTiter-Glo 2.0 reagent (Promega G9241) was added to the wells of the 384-well plate and allowed to equilibrate for 10 minutes before luminescence intensity was recorded on a Tecan SPARK plate reader (luminescence module, no attenuation, 250 ms integration time, output Counts/s). TR-FRET ratios were background-subtracted from wells containing lysis buffer, 0.5 mg/mL BSA, and detection mix.

[9] = dose-titration of ATP and proline against tracer MAT379, read-out: PfcProRS KD of substrates
[10] = PfcProRS (KD [nM]) +proline, 100 μM proline
[11] = PfcProRS (KD [nM]) −, absence of substrates
[12] = Plasmodium falciparum, DD2, 72 h
[13] = absence of substrates, read-out: HsProRS (KD [nM]) −
[14] = read-out: HsProRS (KD [nM]) +proline, 100 μM proline
[15] = dose-titration of tracer on HT-HsProRS, read-out: HsProRS KD of tracers
[16] = PfcProRS KD, substrate condition not given
[17] = substrate condition not given, read-out: HsProRS KD

Nc1ncnc2c1ncn2[C@@H]1O[C@H](COP(=O)(O)OP(=O)(O)OP(=O)(O)O)[C@@H](O)[C@H]1O [ATP]
Kd [1, 9]: 892000 nM

CC1(C)CC[C@]2(C(=O)O)CC[C@]3(C)[C@H](C(=O)C=C4[C@@]5(C)C=C(C#N)C(=O)C(C)(C)[C@@H]5CC[C@]43C)[C@@H]2C1 [CDDO, (4aS,6aR,6bS,8aR,12aS,14aR,14bS)-11-cyano-2,2,6a,6b,9,9,12a-heptamethyl-10,14.dioxo-1,3,4,5,6,6a,6b,7,8,8a,9,10,12a,14,14a,14b-hexadecahydropicene-4a(2H)-carboxylic acid]
IC50 [2]: 4 nM
IC50 [3]: 224000 nM

CC(C)(C)OC(=O)NC1CCN(C(=O)Nc2nccnc2C(=O)NC2Cc3ccccc3C2)CC1 [Compound 7, tert-butyl (1-((3-((2,3-dihydro-1H-inden-2-yl)carbamoyl)pyrazin-2-yl)carbamoyl)piperidin-4-yl)carbamate]
Kd [1, 10]: 13.2 nM
Kd [1, 11]: 13.1 nM
EC50 [4, 12]: 90.6 nM
EC50 [5]: 2170 nM

CC(C)(C)OC(=O)N1CCC[C@H]1C(=O)NC1CCN(C(=O)Nc2nccnc2C(=O)NC2Cc3ccccc3C2)CC1 [Compound 31, tert-butyl (S)-2-((1-((3-((2,3-dihydro-1H-inden-2-yl)carbamoyl)pyrazin-2-yl)carbamoyl)piperidin-4-yl)carbamoyl)pyrrolidine-1-carboxylate]
Kd [1, 10]: 1990 nM
Kd [1, 11]: 2300 nM
Kd [6]: > 5000 nM
percent growth at 10 μM [4]: 102%†
percent growth at 10 μM [5]: 98%†

CC(C)(C)OC(=O)N1CCC[C@H]1C(=O)NCC1CCN(C(=O)Nc2nccnc2C(=O)NC2Cc3ccccc3C2)CC1 [Compound 32, tert-butyl (S)-2-(((1-((3-((2,3-dihydro-1H-inden-2-yl)Carbamoyl)pyrazin-2-yl)carbamoyl)piperidin-4-yl)methyl)carbamoyl)pyrrolidine-1-carboxylate]
Kd [1, 10]: 5.35 nM
Kd [1, 11]: 6.67 nM
Kd [6, 13]: 72.1 nM
Kd [6, 14]: 270 nM
EC50 [4, 12]: 63.2 nM
EC50 [5]: 1530 nM

CC[C@H](C)[C@H](N)C(=O)NS(=O)(=O)NC[C@H]1O[C@@H](n2cnc3c(N)ncnc32)[C@H](O)[C@@H]1O [IleSNA]
IC50 ([4]; Plasmodium falciparum, DD2, read-out: ABS IC50): 1.19 nM

O=C(NC1Cc2ccccc2C1)c1nccnc1NC(=O)N1CCC(NC(=O)[C@@H]2CCCN2)CC1 [MAT334, (S)-N-(2,3-dihydro-1H-inden-2-yl)-3-(4-(pyrrolidine-2-carboxamido)piperidine-1-carboxamido)pyrazine-2-carboxamide]
Kd [1, 10]: 660 nM
Kd [1, 11]: 1380 nM
Kd [6, 14]: 2130 nM
percent growth at 10 μM [4]: 76%†
percent growth at 10 μM [5]: 59%†

O=C(NC1Cc2ccccc2C1)c1nccnc1NC(=O)N1CCC(CNC(=O)[C@@H]2CCCN2)CC1 [MAT345, (S)-N-(2,3-dihydro-1H-inden-2-y)-3-(4-((pyrrolidine-2-carboxamido)methyl)piperidine-1-carboxamido)pyrazine-2-carboxamide]
Kd [1, 10]: 35.9 nM
Kd [1, 11]: 39.8 nM
Kd [6, 13]: 140 nM
Kd [6, 14]: 282 nM
EC50 [4, 12]: 249 nM
EC50 [5]: 7210 nM

O=C(CCCCCNC(=S)Nc1ccc(-c2c3ccc(=O)cc-3oc3cc(O)ccc23)c(C(=O)O)c1)NC1CCN(C(=O)Nc2nccnc2C(=O)NC2Cc3ccccc3C2)CC1 [MAT379]
koff ([1]; 10-fold dilution of 100 nM HT-PfcProRS and 560 nM MAT379, read-out: first-order dissociation rate constant (koff)): < 0.00267 s⁻¹
Kd ([1]; absence of substrates, read-out: PfcProRS (KD [nM]) −): 100 nM
Kd [6, 15]: 1700 nM
fold less tightly bound to HT-HsProRS relative to HT-PfcProRS [6]: 17 fold and > 15 fold

O=C(CCCCCNC(=S)Nc1ccc(-c2c3ccc(=O)cc-3oc3cc(O)ccc23)c(C(=O)O)c1)NCCCCCC(=O)NC1CCN(C(=O)Nc2nccnc2C(=O)NC2Cc3ccccc3C2)CC1 [MAT422]
Kd ([1]; KD, PfcProRS of alternative tracer, tracer binding, conditions not stated): 1280 nM
Kd [6, 15]: > 4000 nM

O=C(CCCCCNC(=S)Nc1ccc(C(=O)O)c(-c2c3ccc(=O)cc-3oc3cc(O)ccc23)c1)NCC1CCN(C(=O)Nc2nccnc2C(=O)NC2Cc3ccccc3C2)CC1 [MAT425, 4-(3-(6-(((1-((3-((2,3-dihydro-1H-inden-2-yl)carbamoyl)pyrazin-2-yl)carbamoyl)piperidin-4-yl)methyl)amino)-6-oxohexyl)thioureido)-2-(6-hydroxy-3-oxo-3H-xanthen-9-yl)benzoic acid]
Kd [1, 11]: 199 nM
Kd [6, 15]: > 10000 nM
fold less tightly bound to HT-HsProRS relative to HT-PfcProRS [6]: > 50 fold

NCCOCCOCCCCCCN(C[C@H]1O[C@@H](n2cnc3c(N)ncnc32)[C@H](O)[C@@H]1O)S(=O)(=O)NC(=O)[C@@H]1CCCN1 [MAT556, (S)-N-(N-(((2R,3S,4R,5R)-5-(6-amino-9H-purin-9-yl)-3,4-dihydroxytetrahydrofuran-2-yl)methyl)-N-(6-(2-(2-aminoethoxy)ethoxy)hexyl)sulfamoyl)pyrrolidine-2-carboxamide]
Kd [1, 16]: 195 nM
Kd [6, 17]: 33.7 nM

NS(=O)(=O)OC[C@@H]1C[C@@H](n2ccc3c(N[C@H]4CCc5ccccc54)ncnc32)C[C@@H]1O [MLN4924]
rescue of CS-JQ1-mediated BRD4 degradation [7]: substantially rescued
rescue of dBET6-induced BRD4 degradation [7]: attenuated
rescue of CS-JQ1-mediated BRD4 degradation [8]: substantially rescued
rescue of dBET6-induced BRD4 degradation [8]: attenuated

NS(=O)(=O)OC[C@H]1C[C@@H](Nc2ccnc3cc(-c4cccc(SC(F)(F)F)c4)nn23)[C@H](O)[C@@H]1O [MLN7243]
rescue of CS-JQ1-mediated BRD4 degradation [7]: substantially rescued
rescue of dBET6-induced BRD4 degradation [7]: attenuated
rescue of CS-JQ1-mediated BRD4 degradation [8]: substantially rescued
rescue of dBET6-induced BRD4 degradation [8]: attenuated

COC1=CC(=O)C(O)=C/C1=C\C=C\c1ccccc1 [OBT, obtusaquinone]
IC50 [2]: 3390 nM
IC50 [3]: 24600 nM

Nc1ncnc2c1ncn2[C@@H]1O[C@H](COS(=O)(=O)NC(=O)[C@@H]2CCCN2)[C@@H](O)[C@H]1O [ProSA, prolyl-sulfamoyl adenosine, reference compound]
EC50 ([4]; wild-type Dd2-2D4, 72 h growth): 151 nM

Nc1ncnc2c1ncn2[C@@H]1O[C@H](CNS(=O)(=O)NC(=O)[C@@H]2CCCN2)[C@@H](O)[C@H]1O [ProSNA, (S)-N-(N-(((2R,3S,4R,5R)-5-(6-amino-9H-purin-9-yl)-3,4-dihydroxytetrahydrofuran-2-yl)methyl)sulfamoyl)pyrrolidine-2-carboxamide]
Kd [1, 16]: < 1 nM
Kd [6, 17]: < 1 nM
EC50 [4, 12]: 172 nM

CC(C)C[C@H](NC(=O)[C@H](Cc1ccccc1)NC(=O)c1cnccn1)B(O)O [bortezomib]
rescue of CS-JQ1-mediated BRD4 degradation [7]: substantially rescued
rescue of dBET6-induced BRD4 degradation [7]: attenuated
rescue of CS-JQ1-mediated BRD4 degradation [8]: substantially rescued
rescue of dBET6-induced BRD4 degradation [8]: attenuated

O=C(CC1NCCCC1O)Cn1cnc2cc(Br)c(Cl)cc2c1=O (centres unmarked) [halofuginone, reference compound]
fold increased affinity in the presence of ATP ([1]; 500 μM ATP vs 0 μM ATP): > 6,000 fold

O=C(O)[C@@H]1CCCN1 [proline]
Kd [1, 9]: 457000 nM
Kd ([6]; read-out: HsProRS KD of proline, competition with MAT379): 67100 nM
